One assay addresses TBCYP51 (Trypanosoma brucei brucei, UniProt Q385E8). It counts as binding.
In assay [1] the target is T1, TCCYP51 (Trypanosoma cruzi, UniProt Q7Z1V1). It counts as binding. The settings on record: for spectral response: TCCYP51.
A further assay concerns the target I105F mutant of TCCYP51 (Trypanosoma cruzi, UniProt Q7Z1V1, I105F). In kind it is binding.
The subject of the next assay is Trypanosoma brucei. Put plainly: TB cellular growth inhibition. It counts as cell-based. The settings on record: read-out: EC50 / 50% cell growth inhibition for TB, form not stated.
The test system of assay [2] is Trypanosoma cruzi. The assay can be described thus: TC cellular growth inhibition. In kind it is cell-based.
In assay [3] the test system is TC infected cardiomyoblasts. Put plainly: inhibition of TC multiplication within cardiomyoblasts. The settings on record: 30 µM. In kind it is cell-based, Trypanosoma cruzi.
Assay [4] has as its target T1, TCCYP51. In kind it is biochemical. The settings on record: T. cruzi CYP51, initial rate.
In assay [5] the test system is Trypanosoma cruzi. Particulars: read-out: published EC50 values in TC cells; cited from earlier work.
The target in assay [6] is T1, TCCYP51. The settings on record: cited from earlier work.
In assay [7] the target is T1, TCCYP51. The settings on record: cited from earlier work. The source holds these as a separate data set.

Read-outs that look alike come from different tables or passages of the source.

Take “32-Methylene cyclopropyl-lanost-7-enol [MCP]”: the spectral response result on TBCYP51 (TBCYP51), on TCCYP51 [1] and at I105F mutant of TCCYP51 was “type 1 spectral responses” each time. Moreover, the “high spin content (low to high spin transition in the heme iron)” value on TBCYP51 (TBCYP51, maximal upon titration) is recorded as 85%; on TCCYP51 [1] (TCCYP51, maximal upon titration) it was 41%. Also, the high spin form on I105F mutant of TCCYP51 is recorded as 87%. The EC50 in the assay with Trypanosoma brucei is greater than 50 µM; in the assay on Trypanosoma cruzi [2] (read-out: 50% cell growth inhibition of TC, TC, form not stated) it was 3 µM. In assay [3], the “parasite cells cleared from TC infected cardiomyoblasts” value is listed as “more than 90%”. Also, the “number of intracellular parasites” value in assay [3] (72 h, trypanosomes pre-incubated with compound) is “dramatic decrease in the number of intracellular parasites”.
For the molecule `O=C(Cn1ccnc1[N+](=O)[O-])NCc1ccccc1` [benznidazole], the “I/E2 (5 min), molar ratio inhibitor/enzyme which causes a twofold decrease in the activity” value on TCCYP51 [4] came out at 42. In addition, the spectral response result at TCCYP51 [1] is on record as “does not induce spectral changes”. Further, the EC50 in the assay on Trypanosoma cruzi [5] was 25 to 50 µM.
With `O=C(NC(Cn1ccnc1)c1ccccc1)c1ccc(-c2ccc(Cl)cc2)cc1` (stereo not shown) [SDZ285604], the EC50 in the assay on Trypanosoma cruzi [2] (read-out: EC50 (50% cellular growth inhibition), amastigotes (intracellular form) of TC) is less than 1 µM; in the assay with Trypanosoma cruzi [2] (read-out: EC50 (50% cellular growth inhibition), trypomastigotes (extracellular form) of TC) it was less than 1 µM.
Consider `CC(C)CCC[C@@H](C)[C@H]1CC[C@@]2(CN)C3=CCC4C(C)(C)[C@@H](O)CC[C@]4(C)[C@H]3CC[C@]12C` (stereo partly drawn) [AL7, 4,4-dimethyl-14α-aminomethyl-cholest-7-en-3β-ol], for which the “I/E2 for the initial rate of TCCYP51 catalysis” value at TCCYP51 [6] is on record as 11. At TCCYP51 [7], the spectral response result is “type 2 spectral responses”.
Consider `CC(C)CCC[C@@H](C)[C@H]1CC[C@@]2(CN)C3=C(CC[C@]12C)[C@@]1(C)CC[C@H](O)C(C)(C)C1CC3` (stereo partly drawn) [AL8, 4,4-dimethyl-14α-aminomethyl-cholest-8-en-3β-ol], for which the “I/E2 for the initial rate of TCCYP51 catalysis” value on TCCYP51 [6] is 14. On TCCYP51 [7], the spectral response entry is listed as “type 2 spectral responses”.

The values are drawn from PMC2715142 (Lipids, 2008).
